Key:
Human MGAT-2 [1] = target: T1, Human MGAT-2 (Homo sapiens (Human), UniProt Q3SYC2); assay: MGAT SPA Assay; assay type: biochemical; details: membranes from Sf9 cells expressing recombinant human MGAT2; 2-monooleoylglycerol and [3H]-oleoyl-CoA;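 also: inhibition scaled between DMSO vehicle as full MGAT2 activity and membranes of uninfected Sf9 cells as blank, IC50 fitted by logistic curve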
Human MGAT-2 [2] = target: T1, Human MGAT-2; assay: MGAT LCMS Assay (human MGAT-2); assay type: biochemical; details: human MGAT-2 membranes expressed in Sf9 cells; 2-oleoylglycerol and oleoyl-Coenzyme A; read-out: h-MGAT2 IC50 (nM) LCMS Assay;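 also: diolein product quantified by LC/MS with positive APCI, expressed as peak area ratio versus an internal standard, and this ratio used to derive IC50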

T1 sequence (Q3SYC2 whole entry): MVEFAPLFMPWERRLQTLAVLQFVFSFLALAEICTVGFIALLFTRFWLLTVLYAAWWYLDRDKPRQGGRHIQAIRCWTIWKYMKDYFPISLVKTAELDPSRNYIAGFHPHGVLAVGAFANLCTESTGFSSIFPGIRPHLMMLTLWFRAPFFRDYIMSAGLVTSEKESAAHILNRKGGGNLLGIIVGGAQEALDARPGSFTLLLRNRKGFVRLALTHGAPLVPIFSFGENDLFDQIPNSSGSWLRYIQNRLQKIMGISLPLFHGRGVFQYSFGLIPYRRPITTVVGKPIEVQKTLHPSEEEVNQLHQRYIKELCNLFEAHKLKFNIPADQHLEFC

| SMILES | IC50 (Human MGAT-2 [1]) [nM] | IC50 (Human MGAT-2 [2]) [nM] |
| --- | --- | --- |
| COc1ccc(C2=C[C@](c3ccc(OCCCC(F)(F)F)cc3)(C(F)(F)F)NC(=O)C2(F)C#N)cc1 (single isomer, unassigned) [Example 15-1, 3-Fluoro-4-(4-methoxyphenyl)-2-oxo-6-(4-(4,4,4-trifluorobutoxyl)phenyl)-6-(trifluoromethyl)-1,2,3,6-tetrahydropyridine-3-carbonitrile] | 3310 | 12 |
| COc1ccc(NC(=O)C2C(=O)N[C@@](c3ccc(OCCCC(F)(F)F)cc3)(C(F)(F)F)CC2c2ccc(C)cc2)cc1 (single isomer, unassigned) [Example 16-1, N-(4-Methoxyphenyl)-2-oxo-4-p-tolyl-6-(4-(4,4,4-trifluorobutoxyl)phenyl)-6-(trifluoromethyl)piperidine-3-carboxamide] | 25 | 7 |
| COc1ccc(NC(=O)C2C(=O)N[C@@](c3ccc(OCCCC(F)(F)F)cc3)(C(F)(F)F)CC2c2ccc(C)cc2)cc1 (single isomer, unassigned) [Example 16-2, N-(4-Methoxyphenyl)-2-oxo-4-p-tolyl-6-(4-(4,4,4-trifluorobutoxyl)phenyl)-6-(trifluoromethyl)piperidine-3-carboxamide] | 8430 | 416 |
| Cc1ccc(C2=C(C#N)C(=O)NC(c3ccc(Br)cc3)(C(F)(F)F)C2)cc1 (stereo not drawn) [Example 3, 6-(4-Bromophenyl)-2-oxo-4-p-tolyl-6-(trifluoromethyl)-1,2,5,6-tetrahydropyridine-3-carbonitrile] | 1800 | – |
| Cc1ccc(C2=C(C#N)C(=O)NC(c3ccc(O)cc3)(C(F)(F)F)C2)cc1 (stereo not drawn) [Example 4, 6-(4-Hydroxyphenyl)-2-oxo-4-p-tolyl-6-(trifluoromethyl)-1,2,5,6-tetrahydro-pyridine-3-carbonitrile] | 5870 | – |
| CCOc1ccc(-c2ccc(C3(C(F)(F)F)CC(c4ccc(C)cc4)=C(C#N)C(=O)N3)cc2)cn1 (stereo not drawn) [Example 7, 6-(4-(6-Ethoxypyridin-3-yl)phenyl)-2-oxo-4-p-tolyl-6-(trifluoromethyl)-1,2,5,6-tetrahydropyridine-3-carbonitrile] | 818 | – |
| Cc1ccc(C2=C(c3nnc(C(F)(F)F)o3)C(=O)NC(c3ccc(OCCCC(F)(F)F)cc3)(C(F)(F)F)C2)cc1 (stereo not drawn) [Example 10, 4-p-Tolyl-6-(4-(4,4,4-trifluorobutoxyl)phenyl)-6-(trifluoromethyl)-3-(5-(trifluoromethyl)-1,3,4-oxadiazol-2-yl)-5,6-dihydropyridin-2(1H)-one] | 2720 | 138 |
| Cc1ccc(C2=C(C(=O)Nc3ccc(OC(F)(F)F)cc3)C(=O)NC(C)(c3ccc(OCCCC(F)(F)F)cc3)C2)cc1 (stereo not drawn) [Example 11, 6-Methyl-2-oxo-4-p-tolyl-6-(4-(4,4,4-trifluorobutoxyl)phenyl)-N-(4-(trifluoromethoxy)-phenyl)-1,2,5,6-tetrahydropyridine-3-carboxamide] | 48 | 13 |
| Cc1ccc(C2=C([N+](=O)[O-])C(=O)NC(c3ccc(OCCCC(F)(F)F)cc3)(C(F)(F)F)C2)cc1 (stereo not drawn) [Example 13, 3-Nitro-4-p-tolyl-6-(4-(4,4,4-trifluorobutoxyl)phenyl)-6-(trifluoromethyl)-5,6-dihydropyridin-2(1H)-one] | 3330 | 35 |
| CC1(c2ccc(N3CCOCC3)cc2)CC(c2ccc(N3CCOCC3)cc2)=C(C#N)C(=O)N1 (stereo not drawn) [Example 17] | 1930 | – |
| Cc1ccc(C2=C(C#N)C(=O)NC(C)(c3ccc(C)c(C)c3)C2)cc1C (stereo not drawn) [Example 18] | 5760 | – |
| CCOc1ccc(C2=C(C#N)C(=O)NC(C)(c3ccc(OCC)cc3)C2)cc1 (stereo not drawn) [Example 19] | 2900 | – |
| CC(C)(C)c1ccc(C2=C(C#N)C(=O)NC(C)(c3ccc(C(C)(C)C)cc3)C2)cc1 (stereo not drawn) [Example 20] | 3460 | – |
| Cc1ccc(C2=C(c3nnn[nH]3)C(=O)NC(C)(c3ccc(C)cc3)C2)cc1 (stereo not drawn) [Example 21] | 913 | – |
| Cc1ccc(C2=C(C#N)C(=O)NC(C)(c3ccccc3)C2)cc1 (stereo not drawn) [Example 23] | 1290 | – |
| Cc1ccc(C2=C(C#N)C(=O)NC(c3ccc(Cl)cc3)(C(F)(F)F)C2)cc1 (stereo not drawn) [Example 24] | 1730 | – |
| Cc1ccc(C2=C(C#N)C(=O)NC(c3cccc(F)c3)(C(F)(F)F)C2)cc1 (stereo not drawn) [Example 25] | 4570 | – |
| Cc1ccc(C2=C(C#N)C(=O)NC(c3ccc(F)c(F)c3)(C(F)(F)F)C2)cc1 (stereo not drawn) [Example 26] | 6430 | – |
| Cc1ccc(C2=C(C#N)C(=O)NC(c3ccc(F)cc3)(C(F)(F)F)C2)cc1 (stereo not drawn) [Example 27] | 2520 | – |
| Cc1ccc(C2=C(C#N)C(=O)NC(c3ccc(N(C)C)cc3)(C(F)(F)F)C2)cc1 (stereo not drawn) [Example 31] | 1510 | – |
| Cc1ccc(C2=C(C#N)C(=O)NC(c3cccc(Br)c3)(C(F)(F)F)C2)cc1 (stereo not drawn) [Example 32] | 9960 | – |
| Cc1ccc(C2=C(C#N)C(=O)NC(c3ccc(OCCOC(C)(C)C)cc3)(C(F)(F)F)C2)cc1 (stereo not drawn) [Example 34] | 656 | 126 |
| Cc1ccc(C2=C(C#N)C(=O)NC(c3ccc(OCCC4CCCC4)cc3)(C(F)(F)F)C2)cc1 (stereo not drawn) [Example 36] | 396 | 57 |
| COc1ccc(C2(C(F)(F)F)CC(c3ccc(C)cc3)=C(c3nnn[nH]3)C(=O)N2)cc1 (stereo not drawn) [Example 38] | 2140 | – |
| COc1ccc(C2(C(F)(F)F)CC(c3ccc(C)cc3)=C(C(=O)Nc3ccc(F)cc3)C(=O)N2)cc1 (stereo not drawn) [Example 41] | 170 | 15 |
| Cc1ccc(C2=C(C#N)C(=O)NC(c3ccc(Oc4ccccc4)nc3)(C(F)(F)F)C2)cc1 (stereo not drawn) [Example 44] | 1460 | – |
| Cc1ccc(C2=C(C#N)C(=O)NC(c3ccc(Oc4ncccn4)cc3)(C(F)(F)F)C2)cc1 (stereo not drawn) [Example 46] | 871 | – |
| Cc1ccc(C2=C(C#N)C(=O)NC(c3ccc(OCc4ccccc4)cc3)(C(F)(F)F)C2)cc1 (stereo not drawn) [Example 47] | 756 | – |
| Cc1ccc(C2=C(C(=O)Nc3ccc(F)cc3)C(=O)NC(c3ccc(Oc4ccccc4)cc3)(C(F)(F)F)C2)cc1 (stereo not drawn) [Example 48] | 226 | 7 |

The next lines start with the values.

| IC50 (Human MGAT-2 [1]) [nM] | IC50 (Human MGAT-2 [2]) [nM] | SMILES |
| --- | --- | --- |
| 6550 | – | Cc1ccc(C2=C(C(=O)NCc3ccccc3)C(=O)NC(c3ccc(OCCCC(F)(F)F)cc3)(C(F)(F)F)C2)cc1 (stereo not drawn) [Example 56] |
| 709 | – | Cc1ccc(C2=C(C(=O)Nc3cccc(Cl)c3)C(=O)NC(c3ccc(OCCCC(F)(F)F)cc3)(C(F)(F)F)C2)cc1 (stereo not drawn) [Example 61] |
| 3400 | – | Cc1ccc(C2=CC(=O)NC(c3ccc(OCCCC(F)(F)F)cc3)(C(F)(F)F)C2)cc1 (stereo not drawn) [Example 70] |
| – | 19 | Cc1ccc(C2=C(c3nn[nH]n3)C(=O)NC(c3ccc(C#CCC4CCCCC4)cc3)(C(F)(F)F)C2)cc1 (stereo not drawn) [Example 289] |
| – | 56 | Cc1ccc(C2=C(c3nn[nH]n3)C(=O)NC(c3ccc(C#CCOCc4ccccc4)cc3)(C(F)(F)F)C2)cc1 (stereo not drawn) [Example 290] |
| – | 178 | Cc1ccc(C2=C(c3nn[nH]n3)C(=O)NC(c3ccc(C#CC4CCCCC4)cc3)(C(F)(F)F)C2)cc1 (stereo not drawn) [Example 291] |
| – | 304 | CCCCCCCc1cnc(C2(C(F)(F)F)CC(c3ccc(C)cc3)=C(c3nn[nH]n3)C(=O)N2)s1 (stereo not drawn) [Example 292] |
| – | 7 | CCCCCC#CC1(C(F)(F)F)CC(c2ccc(C)cc2)=C(c2nn[nH]n2)C(=O)N1 (stereo not drawn) [Example 293] |
| – | 84 | COc1ccc(C2=C(c3nn[nH]n3)C(=O)NC(C#CCCc3ccccc3)(C(F)(F)F)C2)cc1 (stereo not drawn) [Example 294] |
| – | 183 | COc1ccc(C2=C(c3nn[nH]n3)C(=O)NC(C#CCCC(C)C)(C(F)(F)F)C2)cc1 (stereo not drawn) [Example 295] |
| – | 2 | COc1ccc(NC(=O)C2=C(c3ccc(C)cc3F)CC(c3ccc(OCCCC(F)(F)F)cc3)(C(F)(F)F)NC2=O)cc1 (stereo not drawn) [Example 296] |
| – | 639 | Cc1ccc(C2=C(NC(=O)CNS(C)(=O)=O)C(=O)NC(c3ccc(OCCCC(F)(F)F)cc3)(C(F)(F)F)C2)cc1 (stereo not drawn) [Example 297] |
| – | 2 | CCCCCCC#CC1(C(F)(F)F)CC(c2ccc(C)cc2)=C(NC(=O)CNS(C)(=O)=O)C(=O)N1 (stereo not drawn) [Example 298] |
| – | 11 | Cc1ccc(C2=C(NC(=O)c3cccnc3)C(=O)NC(c3ccc(OCCCC(F)(F)F)cc3)(C(F)(F)F)C2)cc1 (stereo not drawn) [Example 299] |
| – | 11 | CCCCCCC#CC1(C(F)(F)F)CC(c2ccc(C)cc2)=C(NC(=O)c2cccnc2)C(=O)N1 (stereo not drawn) [Example 300] |
| – | 19 | O=C1NC(c2ccc(OCCCCCC(F)(F)F)c(F)c2)(C(F)(F)F)CC(c2ccc(OC(F)F)cc2)=C1c1nn[nH]n1 (stereo not drawn) [Example 301] |
| – | 105 | CCCOc1ccc(C2(C(F)(F)F)CC(c3ccc(C)cc3)=C(NC(=O)CS(C)(=O)=O)C(=O)N2)cc1 (stereo not drawn) [Example 302] |
| – | 6 | O=C1NC(c2ccc(OCCCCCC(F)(F)F)c(F)c2)(C(F)(F)F)CC(c2ccc3ccccc3c2)=C1c1nn[nH]n1 (stereo not drawn) [Example 304] |
| – | 94 | CCOc1ccc(C2=C(c3nn[nH]n3)C(=O)NC(c3ccc(OCCCCCC(F)(F)F)c(F)c3)(C(F)(F)F)C2)cc1 (stereo not drawn) [Example 305] |
| – | 3 | O=C1NC(c2ccc(OCCCCCC(F)(F)F)c(F)c2)(C(F)(F)F)CC(c2ccc(CC(F)(F)F)cc2)=C1c1nn[nH]n1 (stereo not drawn) [Example 306] |
| – | 3 | CCCCCCC#Cc1ccc(C2(C(F)(F)F)CC(c3ccc(OC(F)F)cc3)=C(c3nn[nH]n3)C(=O)N2)cc1F (stereo not drawn) [Example 307] |
| – | 61 | CCCCCCC#Cc1ccc(C2(C(F)(F)F)CC(c3ccc(OCC)cc3)=C(c3nn[nH]n3)C(=O)N2)cc1F (stereo not drawn) [Example 308] |
| – | 1 | O=C1NC(c2ccc(OCCCCCC(F)(F)F)c(F)c2)(C(F)(F)F)CC(c2ccc3ccccc3c2)=C1c1nn[nH]n1 (stereo not drawn) [Example 309] |
| – | 4 | Cc1ccc(C2=C(NC(=O)c3nnn[nH]3)C(=O)NC(c3ccc(OCCCC(F)(F)F)cc3)(C(F)(F)F)C2)cc1 (stereo not drawn) [Example 310] |
| – | 3 | CCCCCCCC#CC1(C(F)(F)F)CC(c2ccc(C)cc2)=C(NC(=O)c2nnn[nH]2)C(=O)N1 (stereo not drawn) [Example 311] |
| – | 4 | CCCCCCCC#CC1(C(F)(F)F)CC(c2ccc(OC(F)F)cc2)=C(NC(=O)CS(C)(=O)=O)C(=O)N1 (stereo not drawn) [Example 313] |

— patent publication US9187424B1, “Aryl dihydropyridinones and piperidinone MGAT2 inhibitors” (Bristol-Myers Squibb Company, priority 2011, dated 2015)
